Results published in ChEMBL document CHEMBL1158248, “Pessoine and spinosine, two catecholic berbines from Annona spinescens” (1996).

Columns and labels:
Format in all cases: functional
Trypanosoma cruzi = assay: Trypanocidal activity against Trypanosoma cruzi trypomastigote assessed as lysis of trypomastigotes at 250 ug/mL after 24 hrs relative to control
Leishmania amazonensis [1] = assay: Antileishmanial against Leishmania amazonensis promastigote LV 79 assessed as lysis of parasites at 10 ug/mL after 48 hrs
Leishmania braziliensis [2] = assay: Antileishmanial against Leishmania brasiliensis 2903 promastigote assessed as total lysis of parasites after 48 hrs
Leishmania amazonensis [3] = assay: Antileishmanial against Leishmania amazonensis promastigote LV 79 assessed as total lysis of parasites after 48 hrs
Leishmania donovani [4] = assay: Antileishmanial against Leishmania donovani promastigote PP-75 assessed as total lysis of parasites after 48 hrs
Leishmania donovani [5] = assay: Antileishmanial against Leishmania donovani promastigote PP-75 assessed as lysis of parasites at 10 ug/mL after 48 hrs
Leishmania braziliensis [6] = assay: Antileishmanial against Leishmania brasiliensis 2903 promastigote assessed as lysis of parasites at 100 ug/mL after 48 hrs
Leishmania amazonensis [7] = assay: Antileishmanial against Leishmania amazonensis promastigote LV 79 assessed as lysis of parasites at 50 ug/mL after 48 hrs
Leishmania donovani [8] = assay: Antileishmanial against Leishmania donovani promastigote PP-75 assessed as lysis of parasites at 25 ug/mL after 48 hrs

Row | Compound | Activity (Trypanosoma cruzi) [%] | Activity (Leishmania amazonensis [3]) [µg/mL] | Activity (Leishmania donovani [4]) [µg/mL] | other results
1 | COc1cc2c(cc1O)[C@@H]1Cc3cc(O)c(O)cc3CN1CC2 | 55 |  |  | 
2 | COc1cc2c3c(c1O)-c1cc4c(cc1CC3N(C(C)=O)CC2)OCO4 (stereo unspecified) [ACETYLNORDOMESTICINE] | 60 |  |  | 
3 | c1ccc2c(c1)C[C@H]1NCCc3cc4c(c-2c31)OCO4 [ANONAINE] | 99 | 25 | 100 | Activity (Leishmania amazonensis [1]): 90%; Activity (Leishmania braziliensis [2]): 50 µg/mL; Activity (Leishmania donovani [5]): 90%
4 | CN(C)c1ccc(C(=C2C=CC(=[N+](C)C)C=C2)c2ccc(N(C)C)cc2)cc1.[Cl-] [GENTIAN VIOLET] | 100 |  |  | 
5 | O=C1c2ccccc2-c2c3c(cc4ccnc1c24)OCO3 [LIRIODENINE] | 50 | 100 | 100 | Activity (Leishmania braziliensis [6]): 90%; Activity (Leishmania amazonensis [7]): 90%; Activity (Leishmania donovani [8]): 90%
6 | COC(=O)/C=C/c1cc(OC)c(O)c(OC)c1 [METHYL SINAPATE] | 44 |  |  | 
7 | COc1cc2c(cc1O)-c1c(O)c(OC)cc3c1[C@H](C2)NCC3 [NORBRACTEOLINE] | 62 |  |  | 
8 | COc1cc2c3c(c1OC)C1(C=CC(=O)C=C1)C[C@@H]3NCC2 [STEPHARINE] | 65 |  |  | 
9 | MEGLUMINE ANTIMONATE |  | > 100 | > 100 | Activity (Leishmania braziliensis [2]): > 100 µg/mL
